Experiments:
L858R/T790M/C797S EGFR = molecular target: T1, L858R/T790M/C797S EGFR (Homo sapiens, UniProt P00533, C797S/L858R/T790M); assay: EGFR degradation HTRF assay in H1975-clone #25 (LTC) cells; assay type: cell-based; settings: 16h treatment; for DC50: H1975 # 25-LTC (L858R/T790M/C797S), HTRF; for Dmax: NCI-H1975, H1975 # 25-LTC (L858R/T790M/C797S), maximum percentage of degradation
T1 construct: expressed in transfected cells; host or cells: H1975 clone #25 (lentiviral over-expression, endogenous EGFR knocked out by sgRNA)
In short: (§1)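 Engineered H1975 lines (exogenous mutant EGFR, endogenous copies knocked out, single clones sequence-verified); 16 h compound, 37 °C/5% CO2, 0.2% DMSO; top 10 uM, 5-fold, 8 pts; lysis 1 h RT, HTRF antibodies overnight RT; 4-parameter logistic fit → DC50.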

Del19/T790M/C797S EGFR = assay: EGFR degradation HTRF assay in H1975-clone #28 (DTC) cells; assay type: cell-based; settings: H1975 # 28 DTC (Del19/T790M/C797S), 16h treatment; for DC50: HTRF; for Dmax (%): maximum percentage of degradation
In short: as §1

T1 sequence (P00533 25-1210 T790M/C797S/L858R): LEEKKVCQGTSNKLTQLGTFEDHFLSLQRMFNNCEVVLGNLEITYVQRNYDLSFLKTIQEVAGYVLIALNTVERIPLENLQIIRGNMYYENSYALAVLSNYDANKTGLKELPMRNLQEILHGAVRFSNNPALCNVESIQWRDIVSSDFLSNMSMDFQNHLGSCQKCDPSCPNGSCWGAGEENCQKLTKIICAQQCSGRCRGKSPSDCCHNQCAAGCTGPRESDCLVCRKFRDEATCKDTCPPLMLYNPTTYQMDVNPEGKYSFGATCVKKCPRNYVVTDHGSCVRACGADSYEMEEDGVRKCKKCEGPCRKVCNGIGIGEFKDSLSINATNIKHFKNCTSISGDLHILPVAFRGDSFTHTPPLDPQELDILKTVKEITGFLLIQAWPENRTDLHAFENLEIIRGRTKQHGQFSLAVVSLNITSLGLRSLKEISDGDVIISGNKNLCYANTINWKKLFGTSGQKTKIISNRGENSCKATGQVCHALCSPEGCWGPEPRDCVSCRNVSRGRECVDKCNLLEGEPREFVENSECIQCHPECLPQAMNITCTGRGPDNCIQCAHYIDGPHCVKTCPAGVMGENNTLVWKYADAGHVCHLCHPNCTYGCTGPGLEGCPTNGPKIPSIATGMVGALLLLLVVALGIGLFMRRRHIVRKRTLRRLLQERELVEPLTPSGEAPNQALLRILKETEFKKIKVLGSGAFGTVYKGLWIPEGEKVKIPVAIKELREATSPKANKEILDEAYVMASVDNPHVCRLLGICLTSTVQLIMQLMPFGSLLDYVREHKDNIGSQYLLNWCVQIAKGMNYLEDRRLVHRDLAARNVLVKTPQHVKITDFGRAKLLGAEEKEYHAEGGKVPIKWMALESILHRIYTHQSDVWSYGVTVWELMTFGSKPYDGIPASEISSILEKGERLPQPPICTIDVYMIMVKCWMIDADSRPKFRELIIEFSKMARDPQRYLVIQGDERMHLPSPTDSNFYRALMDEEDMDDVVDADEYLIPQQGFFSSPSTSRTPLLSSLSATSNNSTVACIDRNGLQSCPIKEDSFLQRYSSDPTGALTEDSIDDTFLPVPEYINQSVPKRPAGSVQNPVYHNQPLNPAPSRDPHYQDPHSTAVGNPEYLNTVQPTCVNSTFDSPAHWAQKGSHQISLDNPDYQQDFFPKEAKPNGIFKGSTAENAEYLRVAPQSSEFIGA

Structure (SMILES)	DC50 (L858R/T790M/C797S EGFR) [nM]	Dmax (L858R/T790M/C797S EGFR) [%]	DC50 (Del19/T790M/C797S EGFR) [nM]	Dmax (%) (Del19/T790M/C797S EGFR)
Cc1cc2cc(n1)-c1cnn(C)c1OCCC[C@@H](C)CN1/C(=N/C2=O)Nc2ccc(C(=O)N(C)C3CCN(CCC4CN(c5cc(F)c([C@H]6CCC(=O)NC6=O)c(F)c5)C4)CC3)cc21 [Example 285, (R,E)-N-(1-(2-(1-(4-((R)-2,6-dioxopiperidin-3-yl)-3,5-difluorophenyl)azetidin-3-yl)ethyl)piperidin-4-yl)-N,1^1,2^6,7-tetramethyl-3-oxo-5^2,5^3-dihydro-1^1H,5^1H-11-oxa-4-aza-5(2,1)-benzo[d]imidazola-2(2,4)-pyridina-1(4,5)-pyrazolacycloundecaphane-5^6-carboxamide]	0.651	89.8	0.667	77.98
Cc1cc2cc(n1)-c1cnn(C)c1OCCC[C@@H](C)CN1/C(=N/C2=O)Nc2ccc(C(=O)N(C)C3CCN(CC4CN(c5cc(F)c([C@H]6CCC(=O)NC6=O)c(F)c5)C4)CC3)cc21 [Example 286, (R,E)-N-(1-((1-(4-((R)-2,6-dioxopiperidin-3-yl)-3,5-difluorophenyl)azetidin-3-yl)methyl)piperidin-4-yl)-N,1^1,2^6,7-tetramethyl-3-oxo-5^2,5^3-dihydro-1^1H,5^1H-11-oxa-4-aza-5(2,1)-benzo[d]imidazola-2(2,4)-pyridina-1(4,5)-pyrazolacycloundecaphane-5^6-carboxamide]	0.45	91.2	0.652	72.5
Cc1cc2cc(n1)-c1cnn(C)c1OCCC[C@@H](C)CN1/C(=N/C2=O)Nc2ccc(C(=O)N(C)C3CCN(CC4CCN(c5cc(F)c([C@H]6CCC(=O)NC6=O)c(F)c5)CC4)CC3)cc21 [Example 287, (R,E)-N-(1-((1-(4-((R)-2,6-dioxopiperidin-3-yl)-3,5-difluorophenyl)piperidin-4-yl)methyl)piperidin-4-yl)-N,1^1,2^6,7-tetramethyl-3-oxo-5^2,5^3-dihydro-1^1H,5^1H-11-oxa-4-aza-5(2,1)-benzo[d]imidazola-2(2.4)-pyridina-1(4,5)-pyrazolacycloundecaphane-5^6-carboxamide]	0.581	93.5	0.918	88.53
Cc1cc2cc(n1)-c1cnn(C)c1OCCC[C@@H](C)CN1/C(=N/C2=O)Nc2ccc(C(=O)N(C)[C@@H]3CCN(CCc4cc(F)c([C@H]5CCC(=O)NC5=O)c(F)c4)C3)cc21 [Example 291, (R,E)-N—((R)-1-(4-((R)-2,6-dioxopiperidin-3-yl)-3,5-difluorophenethyl)pyrrolidin-3-yl)-N,1^1,2^6,7-tetramethyl-3-oxo-5^2,5^3-dihydro-1^1H,5^1H-11-oxa-4-aza-5(2,1)-benzo[d]imidazola-2(2,4)-pyridina-1(4,5)-pyrazolacycloundecaphane-5^6-carboxamide]	0.63	79	0.513	72.04
Cc1cc2cc(n1)-c1cnn(C)c1OCCC[C@@H](C)CN1/C(=N/C2=O)Nc2ccc(C(=O)N(C)[C@@H]3CCCN(CCc4cc(F)c([C@H]5CCC(=O)NC5=O)c(F)c4)CC3)cc21 [Example 292, (R,E)-N—((R)-1-(4-((R)-2,6-dioxopiperidin-3-yl)-3,5-difluorophenethyl)azepan-4-yl)-N,1^1,2^6,7-tetra methyl-3-oxo-5^2,5^3-dihydro-1^1H,5^1H-11-oxa-4-aza-5(2,1)-benzo[d]imidazola-2(2,4)-pyridina-1(4,5)-pyrazolacycloundecaphane-5^6-carboxamide]	0.514	89.4	0.608	85.48

The next lines start with results.

DC50 (L858R/T790M/C797S EGFR) [nM]	Dmax (L858R/T790M/C797S EGFR) [%]	DC50 (Del19/T790M/C797S EGFR) [nM]	Structure (SMILES)	Dmax (%) (Del19/T790M/C797S EGFR)
0.662	92.8	0.488	CCN(C(=O)c1ccc2c(c1)N1C[C@H](C)CCCOc3c(cnn3C)-c3cc(cc(C)n3)C(=O)/N=C/1N2)C1CCN(C2CCN(c3cc(F)c([C@H]4CCC(=O)NC4=O)c(F)c3)CC2)CC1 [Example 288, (R,E)-N-(1′-(4-((R)-2,6-dioxopiperidin-3-yl)-3,5-difluorophenyl)-[1,4′-bipiperidin]-4-yl)-N-ethyl-1^1, 2^6,7-trimethyl-3-oxo-5^2,5^3-dihydro-1^1H,5^1H-11-oxa-4-aza-5(2,1)-benzo[d]imidazola-2(2,4)-pyridina-1(4,5)-pyrazolacycloundecaphane-5^6-carboxamide]	79.62
0.454	93.8	0.624	Cc1cc2cc(n1)-c1cnn(C)c1OCCC[C@@H](C)CN1/C(=N/C2=O)Nc2ccc(C(=O)N(C)C3CCN(C4CCN(c5cc(F)c([C@H]6CCC(=O)NC6=O)c(F)c5)CC4)CC3)cc21 [Example 289, (R,E)-N-(1′-(4-((R)-2,6-dioxopiperidin-3-yl)-3,5-difluorophenyl)-[1,4′-bipiperidin]-4-yl)-N,1^1,2^6,7-tetramethyl-3-oxo-5^2,5^3-dihydro-1^1H,5^1H-11-oxa-4-aza-5(2,1)-benzo[d]imidazola-2(2,4)-pyridina-1(4,5)-pyrazolacycloundecaphane-5^6-carboxamide]	91.07
0.644	89.1	0.64	Cc1cc2cc(n1)-c1cnn(C)c1OCCC[C@@H](C)CN1/C(=N/C2=O)Nc2ccc(C(=O)N(C)C3CCN(C4CN(c5cc(F)c([C@H]6CCC(=O)NC6=O)c(F)c5)C4)CC3)cc21 [Example 290, (R,E)-N-(1-(1-(4-((R)-2,6-dioxopiperidin-3-yl)-3,5-difluorophenyl)azetidin-3-yl)piperidin-4-yl)-N,1′,2^6,7-tetramethyl-3-oxo-5^2,5′-dihydro-1^1H,5^1H-11-oxa-4-aza-5(2,1)-benzo[d]imidazola-2(2,4)-pyridina-1(4,5)-pyrazolacycloundecaphane-5^6-carboxamide]	80.73
1.56	86.3	0.997	Cc1cc2cc(n1)-c1cnn(C)c1OCCC[C@@H](C)CN1/C(=N/C2=O)Nc2ccc(C(=O)N(C)C3C[C@H]4CN(CCc5cc(F)c([C@H]6CCC(=O)NC6=O)c(F)c5)C[C@@H]4C3)cc21 [Example 293, (R,E)-N—((3aR,6aR)-2-(4-((R)-2,6-dioxopiperidin-3-yl)-3,5-difluorophenethyl)octahydrocyclopenta[c]pyrrol-5-yl)-N,1^1,2^6,7-tetramethyl-3-oxo-5^2,5^1-dihydro-1^1H,5^1H-11-oxa-4-aza-5(2,1)-benzo[d]imidazola-2(2,4)-pyridina-1(4,5)-pyrazolacycloundecaphane-5^6-carboxamide]	75.49
0.478	89.5	0.313	Cc1cc2cc(n1)-c1cnn(C)c1OCCC[C@@H](C)CN1/C(=N/C2=O)Nc2ccc(C(=O)N3CC[C@@H](N(C)CCc4cc(F)c([C@H]5CCC(=O)NC5=O)c(F)c4)C3)cc21 [Example 295, (R)-3-(2,6-difluoro-4-(2-(menthyl((R)-1-((R,E)-1^1,2^6,7-trimethyl-3-oxo-5^2,5^3-dihydro-1^1H,5^1H-11-oxa-4-aza-5(2,1)-benzo[d]imidazola-2(2,4)-pyridina-1(4,5)-pyrazolacycloundecaphane-5^6-carbonyl)pyrrolidin-3-yl)amino)ethyl)phenyl)piperidine-2,6-dione]	78.39

Reference: patent US20240342292A1, “Compounds for the Degradation of EGFR Kinase” (BeiGene Switzerland GmbH, priority 2021, published 2024)
